Earlier results in patent US20230172880A1, “FAST-ACTING TOPICAL ANESTHETIC FORMULATIONS” (priority 2020, published 2023).

Conditions: administered directly into tissue

CCN(CC)CC(=O)Nc1c(C)cccc1C [lidocaine]
onset: less than 2 min
